# Reference: patent publication US10681909B2, “Herbicidal triazoles” (FMC Corporation, priority 2014, dated 2020)
# System: velvetleaf
# Assay: Test A postemergence
# Assay type: in vivo, Abutilon theophrasti
# Conditions: Abutilon theophrasti, post-emergence, 240 h, 0 to 100 scale (0 no effect, 100 complete control), approx. 10 d, read-out: Plant response rating, Velvetleaf
# In short: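 Loam/sand soil mix; compound in non-phytotoxic solvent + surfactant. Pre: directed soil spray right after planting seed. Post: potted plants 2–10 cm, 1–2 leaf stage, sprayed with same formulation.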
smiles,measurement,setting,value
"Cn1nc(-c2ccc(F)cc2)nc1Oc1cccc(C(F)(F)F)c1 [Compound 5, 3-(4-fluorophenyl)-1-methyl-5-[3-(trifluoromethyl)phenoxy]-1H-1,2,4-triazole]",pest or weed control at 125 g/ha,125 g ai/ha,30%
same,pest or weed control at 500 g/ha,500 g ai/ha,60%
